Measurements as given in patent US20080261936A1, “METHODS OF REDUCING THE BODY WEIGHT OF A SUBJECT BY ADMINISTERING A FATTY ACID ESTER OF AN ESTROGEN OR ESTROGEN DERIVATIVE IN AN OIL AND COMPOSITIONS CONTAINING THE SAME” (Manhattan Pharmaceuticals, Inc., priority 2006, published 2008).
In brackets after ≈: the same amount, converted by molar mass.

Experiment: Oil evaluation: solubility behavior of oleoyl-estrone, 60 mg/g in single oils
Type: physicochemical
Settings: for solubility at 96 h: oil or lipid, after 96 hr, more oil added
Method: An oil evaluation was done to determine the solubility behavior of oleoyl-estrone as a function of type of oil, concentration and temperature. The solubility of oleoyl-estrone was evaluated at concentrations of 60 mg/g and 200 mg/g. […]

[1] = 60 mg/g in Canola at RT (about 22° C.)
[2] = 60 mg/g in Captex 300-6C at RT (about 22° C.)
[3] = 60 mg/g in Captex 300 EP at RT (about 22° C.)
[4] = 60 mg/g in Corn at RT (about 22° C.)
[5] = 60 mg/g in Labrafac at RT (about 22° C.)
[6] = 60 mg/g in Labrasol at RT (about 22° C.)
[7] = 60 mg/g in Olive at RT (about 22° C.)
[8] = 60 mg/g in Safflower at RT (about 22° C.)
[9] = 60 mg/g in Sesame at RT (about 22° C.)
[10] = 60 mg/g in Soybean at RT (about 22° C.)

Solubility Cycled to 5° C. after 96 hr (60 mg/g in Canola): Dissolved | Solubility After 24 hr [1]: Dissolved | Solubility After 96 hr [1]: Dissolved | Solubility Cycled to 5° C. after 96 hr (60 mg/g in Captex 300-6C): Dissolved | Solubility After 24 hr [2]: Dissolved | Solubility After 96 hr [2]: Dissolved | Solubility Cycled to 5° C. after 96 hr (60 mg/g in Captex 300 EP): Dissolved | Solubility After 24 hr [3]: Dissolved | Solubility After 96 hr [3]: Dissolved | Solubility Cycled to 5° C. after 96 hr (60 mg/g in Corn): Dissolved | Solubility After 24 hr [4]: Dissolved | Solubility After 96 hr [4]: Dissolved | Solubility Cycled to 5° C. after 96 hr (60 mg/g in Labrafac): Dissolved | Solubility After 24 hr [5]: Dissolved | Solubility After 96 hr [5]: Dissolved | Solubility Cycled to 5° C. after 96 hr (60 mg/g in Labrafil 1944 CS): Dissolved | Solubility After 96 hr (60 mg/g in Labrafil 1944 CS at RT (about 22° C.)): NOT Dissolved more oil | Solubility Cycled to 5° C. after 96 hr (60 mg/g in Labrafil M 125CS): Dissolved | Solubility After 96 hr (60 mg/g in Labrafil M 125CS at RT (about 22° C.)): NOT Dissolved more oil | Solubility After 24 hr [6]: Dissolved | Solubility After 96 hr [6]: Dissolved | Solubility Cycled to 5° C. after 96 hr (60 mg/g in Olive): Dissolved | Solubility After 24 hr [7]: Dissolved | Solubility After 96 hr [7]: Dissolved | Solubility Cycled to 5° C. after 96 hr (60 mg/g in Safflower): Dissolved | Solubility After 24 hr [8]: Dissolved | Solubility After 96 hr [8]: Dissolved | Solubility Cycled to 5° C. after 96 hr (60 mg/g in Sesame): Dissolved | Solubility After 24 hr [9]: Dissolved | Solubility After 96 hr [9]: Dissolved | Solubility Cycled to 5° C. after 96 hr (60 mg/g in Soybean): Dissolved | Solubility After 24 hr [10]: Dissolved | Solubility After 96 hr [10]: Dissolved | solubility at 96 h (Labrafil 1944 CS (oil), in Labrafil 1944 CS at RT (about 22° C.)): ~5000 µg/mL (≈ 9.35 mM) | solubility at 96 h (Labrafil M 125CS (oil), in Labrafil M 125CS at RT (about 22° C.)): ≤ 3000 µg/mL
SMILES: CCCCCCCC/C=C\CCCCCCCC(=O)Oc1ccc2c(c1)CC[C@@H]1[C@@H]2CC[C@]2(C)C(=O)CC[C@@H]12 [oleoyl-estrone, [3(Z)]-3-[(1-oxo-9-octadecenyl)oxy]-estra-1,3,5(10)-trien-17-one]
